Data taken from US20090124622A1, “Medicament Containing a Thiazole Derivative as an Active Ingredient” (priority 2006, published 2009).

Assays:
[1] = test system: guinea pig rhinitis model; assay: Inflammatory mediators (TNF, LTE4) in nasal cavity lavage fluid of guinea pig rhinitis model; format: in vivo; details: 8 hours after antigen nasal challenge
Method: Eight hours after antigen nasal challenge, by intraperitoneally administering pentobarbital sodium (Nembutal (reg. trade name), by Dainippon Sumitomo Pharma) 30 mg/body weight (kg) to anesthetize, the animal was fixed at the back. Opening bronchial, a cannula was inserted into a lung site to continue breath, and fixed by knotting. After stopping the channel of oral cavity and nasal cavity, from a part of opened bronchia to a side of nasal cavity a cannula was inserted, and knotted, and to the cannula was connected syringe pump. A saline solution was refluxed in the nasal cavity at flow speed (1 ml/minute) for 10 minutes, and the refluxed solution was recovered to get nasal cavity lavage fluid, NCLF). NCLF was centrifuged (1710.5×g (3000 rpm), 4° C., 10 minutes), and the supernatant was freezed at −80° C., and subjected to experiment of Example 5.
The supernatant of NCLF obtained in Example 4 was freezed at −80° C. and preserved. After thawing the sample, the concentration of LTE4 was measured by immuno assay kit (Leukotriene E4 EIA kit, by Cayman Chemical). The concentration of TNF was measured by bioassay method using L929 cells (from Dainippon Sumitomo Pharma) (David H., et al., J. Allergy Clin. Immunol. 89, 958-967 (1992)). Using recombinant human TNF-α (by PeproTech) as a standard, the result was shown by potency of human TNF-α cytotoxicity.

[2] = test system: guinea pig delayed asthma model; assay: Guinea pig delayed asthma model; format: in vivo; details: Cavia porcellus, oral, 1 hour before OVA inhalation, read-out: ED50 (inhibition of delayed asthma reaction, AUC4-8hr of % sRaw/TV)
Method: Hartley male guinea pigs were purchased from SLC, and after quarantining them for 1 week, at the week when the qualantine was finished the first sensitization was carried out by antigen exposure. By using ultrasonic nebulizer (OMRON NE-U12, condition: Vapor amount: maximum, Air: small) 2% (w/v) ovalbumin (OVA, by Sigma-Aldrich) in saline solution was vaporized, and by disposing for 10 minutes, they were first sensitized. At sensitizing, the guinea pigs were fixed on a body holder cartridge for them (by M.I.P.S.), and they were set on disposal chamber holder for 8 guinea pigs (by M.I.P.S.). Additional sensitization was carried out 7 days after the first sensitization as well. […] Breath function was measured by a general breath function measurement system (by M.I.P.S.) using Double flow plestymograph method (Penny A. Hutson et al. Am Rev Respir Dis 1988 137, 548-557). The breath function was measured before reaction induction (pre-value), 5 minutes, 1, 2, 3, 4, 5, 6, 7, and 8 hours after completion of reaction induction. By using one of parameters, sRaw/TV (specific airway resistance/once breath) as an index of improvement of respiratory function, variation rate per individual of sRaw/TV (% sRaw/TV) against pre-value between each measured times was calculated. Plotting % sRaw/TV with time, Area Under the Curve (AUC4-8hr) from 4 hours to 8 hours after reaction induction was calculated. […]

[3] = test system: guinea pig rhinitis model; assay: Nasal cavity resistance change (sRaw) in guinea pig rhinitis model; format: in vivo; details: oral
Method: Referring to the report (74th Japanese Pharmacological Society (2001), Abstract number P-258, Establishment delayed rhinitis model by a guinea pig and effect of polysulfonic acidified hyaluronic acid, Masaki Matsudo, Junichi Fuchigami et al.), the following evaluation was conducted.
A saline solution (1 ml) containing OVA (50 mg) and aluminum hydroxide gel (1 mg) (by PIERCE) was percuteneously administered to a male Hartley guinea pig (from Kyudo Co. Ltd.) on back collum to make active sensitization.
SMP-028 was orally administered for 15 days starting from sensitization once a day (5 ml/body weight (kg)). The drug was orally administered before 1 hour on the sensitized day or on the antibody-challenged day. To saline solution challenged group (saline group) and control group was orally administered 0.5% MC as well. To dexamethasone group (dex. group) was orally administered the drug before 16 hours and 2 hours of antibody challenge. […]
By using a general respiratory function analysis system (PULMOS-I, by M.I.P.S), nasal cavity resistance of guinea big under palinesthesia was measured in accordance with the method of Double flow plestymograph. Because antibody challenge region was restricted to nose part, sRaw which was analyzed by computer and outputted (specific airway resistance) was served as an index of nasal cavity resistance. Before antibody nasal challenge, 10 minutes, 2, 3, 4, 5, 6 and 7 hours after the challenge, each sRaw per animal was once measured, and average of 100 breathes was made sRaw at each measured time. From the sRaw value by using analysis soft on a general respiratory function analysis system (WinPUL13 ver. 1.21) and using the calculation formula (sRaw increased rate (%) during each measuring times=100×(sRaw−sRaw before challenge during each measuring times)/sRaw before challenge), sRaw change rate was calculated. […] AUC3-7hr was calculated by trapezoid (echelon) method. Furthermore, from IAR and LAR in medium control group and each test group, inhibiting rate (%) on each test group against medium control group was calculated.

[4] = test system: mast cells derived from murine bone marrow; assay: Histamine release from antigen-stimulated murine bone marrow-derived mast cells; format: cell-based, mouse; details: DNP-HSA 100 ng/ml, 20 minutes; IgE-sensitized mast cells
From the text: (§1) According to almost the same method as the method by Razin et al. (J. Immunol. 132, 1479-1486 (1984)), murine bone marrow cells were differentiated into mast cells. Namely, bone marrow cells from femur of a female BALB/c mouse (purchased from Charles River Japan) were collected, and cultured in RPMI 1640 culture medium, containing 10% […] FBS prepared by Invitrogen, and 50% WEHI-3 cell culture supernatant. After culture for more than three weeks and confirming differentiation into mast cells under microscope, the cells were subjected to the following experiments.
Mast cells were suspended in the concentration of 2×10^6 cell/ml, and thereto was added 0.1 μg/ml anti-mouse DNP-Age antibody (SPE7, by Sigma-Aldrich). The cell suspension was incubated overnight in a CO2 incubator (5% CO2, 37° C.), and passively sensitized. […] The cell suspension (80 μl) were added to a 96-well culture plate (by Asahi-techno-glass Co. Ltd.), and then a test sample in DMSO solution or 2.5% DMSO solution only (10 μl) was added. After the plate was reinsulated in a CO2 incubator for 10 minutes, to stimulate, 10 μl of 1 μg/ml of antibody (DNP-HSA, by Sigma-Aldrich, final concentration of antigen 100 ng/ml) was added to each well. […] After terminating the reaction by putting the plate on ice, histamine concentration of the supernatant was measured. […]

[5] = test system: mast cells derived from murine bone marrow; assay: Cytokine (TNF-α, IL-13) release from antigen-stimulated murine bone marrow-derived mast cells; format: cell-based, mouse; details: DNP-HSA 3 ng/ml, 4 hours
From the text: as §1
(§2) Mast cells were suspended in the concentration of 2×10^6 cell/ml, and thereto was added 0.1 μg/ml anti-mouse DNP-Age antibody (SPE7, by Sigma-Aldrich). The cell suspension was incubated overnight in a CO2 incubator (5% CO2, 37° C.), and passively sensitized. […] After terminating the reaction by putting the plate on ice, histamine concentration of the supernatant was measured. […]
This experiment was conducted in almost the same method as the experiment on histamine release except that the final concentration of antigen (DNP-HSA) was 3 ng/ml, and reaction hours after addition of the antigen were 4 hours. The concentrations of TNF-α, and IL-13 in the supernatant were measured by using Enzyme-linked immunoassay kit (Quantikine (reg. trademark) Mouse TNF-α/TNFSF1A and IL-13 Immunoassay, by R&D systems).

[6] = test system: mast cells derived from murine bone marrow; assay: Cys-LT release from antigen-stimulated murine bone marrow-derived mast cells; format: cell-based, mouse; details: DNP-HSA 10 ng/ml; IgE-sensitized mast cells
From the text: as §1, §2
This experiment was conducted in the almost same method as the experiment of histamine release except that the final concentration of antigen (DNP-HSA) was 10 ng/ml. The concentration of […] in supernatant was measured by using Cysteinyl-Leukotriene EIA Kit (by Cayman Chemical).

[7] = test system: guinea pig eosinophiles; assay: Release of prostaglandin D2 and thromboxane B2 from PAF-induced guinea pig eosinophiles; format: cell-based; details: PAF C-16 10^-7M, 10 minutes
Method: In accordance with almost the same as the method of Sugasawa et al. (Agents and Actions 37, 233-237 (1992)), eosinophiles were separated and purified from abdominal of a male Hartley guinea pig (from SLC) and the cell concentration was adjusted to 1.25×10^7 cell/ml with modified hanks solution. The cell suspension (80 μl) were added to a 96-well culture plate (by Asahi-techno-glass Co. Ltd.), and then a test sample in DMSO solution or 2.5% DMSO solution only (10 μl) was added. After the plate was preincubated in a CO2 gas incubator for 10 minutes (5% CO2, at 37° C.), thereto was added Platelet Activating Factor (PAF C-16, by Cayman Chemical) 10 μl (final concentration of PAF C-16: 10−7M), and the mixture was further incubated in a CO2 gas incubator for 10 minutes. The concentrations of thromboxane B2 and prostaglandin in the supernatant were measured by using immunoassay kit (Thromboxane B2 EIA kit, Prostaglandin D2-MOX EIA kit, by Cayman Chemical).

[8] = once a day for 15 days, OVA nasal challenge

SMILES | production of LTE4 in nasal cavity (NCLF) ([1]; EIA) | production of TNF in nasal cavity (NCLF) ([1]; L929 bioassay) | ED50 [2] | efficacy on immediate and delayed nasal congestion reaction compared with dexamethasone ([3]; 30 mg/kg) | delayed nasal congestion reaction (LAR, AUC3-7hr of sRaw increased rate) [3, 8] | immediate nasal congestion reaction (IAR, sRaw increased rate 10 minutes after challenge) [3, 8] | release of histamine from mast cells [4] | release of IL-13 from mast cells [5] | release of TNF-α from mast cells [5] | release of Cys-LT from mast cells [6] | release of prostaglandin D2 from eosinophiles [7] | release of thromboxane B2 from eosinophiles [7]
CNC(=O)NCCn1c(-c2ccc(N3CCOCC3)cc2)csc1=Nc1cccc(F)c1 [SMP-028, N-{2-[2-[(3-Fluorophenyl)imino]-4-(4-morpholin-4-ylphenyl)-1,3-thiazol-3(2H)-yl]ethyl}-N′-methylurea] | showed a tendency and activity of inhibition | showed a tendency and activity of inhibition | 0.44 mg/kg | efficacy comparative to dexamethasone | dose-dependently inhibited | dose-dependently inhibited | inhibited | inhibited | inhibited | inhibited | concentration-dependently inhibited | concentration-dependently inhibited
CNC(=O)NCCn1c(-c2ccc(N3CCOCC3)cc2)csc1=Nc1ccc(F)cc1 [Compound 2, reference compound] |  |  | 0.69 mg/kg |  |  |  |  |  |  |  |  | 
